Assay results published in article PMC6044503 (ACS Omega, 2017).
“And” between values parts separate entries of the source, which are not always exact repeats. Equal entries are not always repeated. Where a SMILES comes first, the peptide text is derived from it. [ ]: non-standard residue; d: D form. The star is where a group is joined. Phe(4-F) = N[C@@H](Cc1ccc(F)cc1)C(=O)O; 2Nal = N[C@@H](Cc1ccc2ccccc2c1)C(=O)O; Cyclohexanecarbonyl = O=C(C1CCCCC1)*; Cha = N[C@@H](CC1CCCCC1)C(=O)O; 4Amb = NCc1ccc(C(=O)O)cc1; Isobutyryl = CC(C)C(=O)*; Aib = CC(C)(N)C(=O)O; Bz = O=C(c1ccccc1)*

Key:
human Y2R [1] = molecular target: T1, human Y2R (Homo sapiens, UniProt P49146); experiment: biochemical; type: biochemical
T1 sequence (P49146 1-381): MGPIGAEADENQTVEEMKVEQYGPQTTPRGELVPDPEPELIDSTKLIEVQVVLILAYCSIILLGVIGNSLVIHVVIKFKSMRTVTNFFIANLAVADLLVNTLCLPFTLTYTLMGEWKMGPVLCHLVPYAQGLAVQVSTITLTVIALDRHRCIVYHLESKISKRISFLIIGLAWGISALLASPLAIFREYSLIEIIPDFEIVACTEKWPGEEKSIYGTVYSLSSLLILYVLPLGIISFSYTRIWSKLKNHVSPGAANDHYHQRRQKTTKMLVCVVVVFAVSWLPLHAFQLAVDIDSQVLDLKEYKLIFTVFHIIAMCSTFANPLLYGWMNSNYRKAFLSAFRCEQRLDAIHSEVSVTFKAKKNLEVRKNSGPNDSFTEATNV

human Y2R [2] = molecular target: T1, human Y2R; experiment: biochemical; type: binding
[3] = Stability in 20% mouse serum/PBS; type: in vitro ADME; conditions: for remaining at 0.5 h: mouse, 20% mouse serum in PBS
male C57BL/6J mice = experiment: Food intake assay, bolus ip administration in lean mice; type: in vivo, mouse; conditions: for % food intake inhibition: vs saline; for % food intake inhibition / % food intake inhibition (cumulative): mean ± SD; for minimum effective dose (food intake reduction): ip administration, lean mice
[4] = bolus ip 2000 nmol/kg, 3 h after administration
[5] = bolus ip 1000 nmol/kg, 3 h after administration
[6] = bolus ip 250 nmol/kg, 3 h after administration
[7] = bolus ip 500 nmol/kg, 3 h after administration

Structure (SMILES)	EC50 (human Y2R [1]) [nM]	IC50 (human Y2R [2]) [nM]	remaining at 0.5 h [3] [%]	% food intake inhibition (male C57BL/6J mice; [4]) [%]	% food intake inhibition (male C57BL/6J mice; [7])	also measured
CC[C@H](C)[C@H](NC(=O)[C@H](Cc1ccc(O)cc1)NC(=O)[C@H](C)NC(=O)[C@H](CCCNC(=N)N)NC(=O)c1ccccc1)C(=O)N[C@@H](CC(N)=O)C(=O)N[C@@H](CC(C)C)C(=O)N[C@H](C(=O)N[C@H](C(=O)N[C@@H](CCCNC(=N)N)C(=O)N[C@@H](CCC(N)=O)C(=O)N[C@@H](CCCNC(=N)N)C(=O)N[C@@H](Cc1ccc(O)cc1)C(N)=O)[C@@H](C)O)[C@@H](C)CC [Compound 1, benzoyl-[Ala^26,Ile^28,31]PYY(25–36)] (Bz-RAYINLITRQRY-NH2)	1.7	16	5	25 ± 7		
CC[C@H](C)[C@H](NC(=O)[C@H](Cc1ccc(O)cc1)NC(=O)[C@H](C)NC(=O)[C@H](CCCNC(=N)N)NC(=O)c1ccccc1)C(=O)N[C@@H](CC(N)=O)C(=O)N[C@@H](CC(C)C)C(=O)N[C@H](C(=O)N[C@H](C(=O)N[C@@H](CCCNC(=N)N)C(=O)N[C@@H](CCC(N)=O)C(=O)N[C@@H](CCCNC(=N)N)C(=O)N[C@@H](CC1CCCCC1)C(N)=O)[C@@H](C)O)[C@@H](C)CC [Compound 2] (Bz-RAYINLITRQR[Cha]-NH2)	1.1	3.2	53	21 ± 5		
CC[C@H](C)[C@H](NC(=O)[C@H](CC1CCCCC1)NC(=O)[C@H](Cc1c[nH]cn1)NC(=O)[C@H](CCCNC(=N)N)NC(=O)c1ccccc1)C(=O)N[C@@H](CC(N)=O)C(=O)N[C@@H](CC(C)C)C(=O)N[C@H](C(=O)N[C@H](C(=O)N[C@@H](CCCNC(=N)N)C(=O)N[C@@H](CCC(N)=O)C(=O)N[C@@H](CCCNC(=N)N)C(=O)N[C@@H](Cc1ccc(O)cc1)C(N)=O)[C@@H](C)O)[C@@H](C)CC [Compound 3] (Bz-RH[Cha]INLITRQRY-NH2)	1.9	15	10	39 ± 7		% food intake inhibition (male C57BL/6J mice; [5]): 17 ± 7%
CC[C@H](C)[C@H](NC(=O)[C@H](CC1CCCCC1)NC(=O)[C@H](Cc1c[nH]cn1)NC(=O)[C@H](CCCNC(=N)N)NC(=O)c1ccccc1)C(=O)N[C@@H](CC(N)=O)C(=O)N[C@@H](CC(C)C)C(=O)N[C@H](C(=O)N[C@H](C(=O)N[C@@H](CCCNC(=N)N)C(=O)N[C@@H](CCC(N)=O)C(=O)N[C@@H](CCCNC(=N)N)C(=O)N[C@@H](CC1CCCCC1)C(N)=O)[C@@H](C)O)[C@@H](C)CC [Compound 4] (Bz-RH[Cha]INLITRQR[Cha]-NH2)	3.6	7.2	102			metabolites in mouse serum ([3]; within 30 min in 20% mouse serum/PBS): did not yield any apparent metabolites; % food intake inhibition (male C57BL/6J mice; [5]): 34 ± 6%
CC[C@H](C)[C@H](NC(=O)[C@H](CC1CCCCC1)NC(=O)[C@H](Cc1c[nH]cn1)NC(=O)[C@H](CCCNC(=N)N)NC(=O)c1ccccc1)C(=O)N[C@@H](CC(N)=O)C(=O)N[C@@H](Cc1c[nH]c2ccccc12)C(=O)N[C@H](C(=O)N[C@H](C(=O)N[C@@H](CCCNC(=N)N)C(=O)N[C@@H](CCC(N)=O)C(=O)N[C@@H](CCCNC(=N)N)C(=O)N[C@@H](CC1CCCCC1)C(N)=O)[C@@H](C)O)[C@@H](C)CC [Compound 5] (Bz-RH[Cha]INWITRQR[Cha]-NH2)	2.3	9.8	93	65 ± 5	8 ± 7%	% food intake inhibition (male C57BL/6J mice; [6]): 10 ± 4%; % food intake inhibition (male C57BL/6J mice; [5]): 40 ± 2%
CC(C)C[C@H](NC(=O)[C@H](CC(N)=O)NC(=O)[C@H](CC1CCCCC1)NC(=O)[C@H](CC1CCCCC1)NC(=O)[C@H](Cc1c[nH]cn1)NC(=O)[C@H](CCCNC(=N)N)NC(=O)c1ccccc1)C(=O)NC(C)(C)C(=O)N[C@H](C(=O)N[C@@H](CCCNC(=N)N)C(=O)N[C@@H](CCC(N)=O)C(=O)N[C@@H](CCCNC(=N)N)C(=O)N[C@@H](CC1CCCCC1)C(N)=O)[C@@H](C)O [Compound 21, benzoyl-[Cha^27,28,36,Aib^31]PYY(25–36)] (Bz-RH[Cha][Cha]NL[Aib]TRQR[Cha]-NH2)					49% and 49 ± 4%	agonist activity, fold lower than that of PYY3–36 (human Y2R [1]): more than 10 fold; binding affinity, fold lower than that of PYY3–36 (human Y2R [2]): more than 10 fold; % food intake inhibition (male C57BL/6J mice; [6]): 32 ± 3%; % food intake inhibition (cumulative) (male C57BL/6J mice; ip 3 nmol/kg, 3 h after administration): –1 ± 6%; % food intake inhibition (cumulative) (male C57BL/6J mice; ip 3 nmol/kg, 6 h after administration): –1 ± 2%; % food intake inhibition (cumulative) (male C57BL/6J mice; ip 3 nmol/kg, 24 h after administration): –7 ± 5%; % food intake inhibition (cumulative) (male C57BL/6J mice; ip 30 nmol/kg, 3 h after administration): 20 ± 6%; % food intake inhibition (cumulative) (male C57BL/6J mice; ip 30 nmol/kg, 6 h after administration): 18 ± 3%; % food intake inhibition (cumulative) (male C57BL/6J mice; ip 30 nmol/kg, 24 h after administration): –2 ± 3%; % food intake inhibition (cumulative) (male C57BL/6J mice; ip 300 nmol/kg, 3 h after administration): 47 ± 3%; % food intake inhibition (cumulative) (male C57BL/6J mice; ip 300 nmol/kg, 6 h after administration): 45 ± 2%; % food intake inhibition (cumulative) (male C57BL/6J mice; ip 300 nmol/kg, 24 h after administration): 8 ± 3%; minimum effective dose (food intake reduction) (male C57BL/6J mice; food intake 3 and 6 h after dosing): 30 nmol/kg; minimum effective dose (food intake reduction) (male C57BL/6J mice; mass equivalent of 30 nmol/kg): ca. 52 μg/kg
CC(C)C[C@H](NC(=O)[C@H](CC(N)=O)NC(=O)[C@H](CC1CCCCC1)NC(=O)[C@H](CC1CCCCC1)NC(=O)[C@H](Cc1c[nH]cn1)NC(=O)[C@H](CCCNC(=N)N)NC(=O)C1CCCCC1)C(=O)NC(C)(C)C(=O)N[C@H](C(=O)N[C@@H](CCCNC(=N)N)C(=O)N[C@@H](CCC(N)=O)C(=O)N[C@@H](CCCNC(=N)N)C(=O)N[C@@H](CC1CCCCC1)C(N)=O)[C@@H](C)O [Compound 22] (Cyclohexanecarbonyl-RH[Cha][Cha]NL[Aib]TRQR[Cha]-NH2)	4	11			25 ± 7%	
CC(C)C[C@H](NC(=O)[C@H](CC(N)=O)NC(=O)[C@H](CC1CCCCC1)NC(=O)[C@H](CC1CCCCC1)NC(=O)[C@H](Cc1c[nH]cn1)NC(=O)[C@H](CCCNC(=N)N)NC(=O)C(C)C)C(=O)NC(C)(C)C(=O)N[C@H](C(=O)N[C@@H](CCCNC(=N)N)C(=O)N[C@@H](CCC(N)=O)C(=O)N[C@@H](CCCNC(=N)N)C(=O)N[C@@H](CC1CCCCC1)C(N)=O)[C@@H](C)O [Compound 23] (Isobutyryl-RH[Cha][Cha]NL[Aib]TRQR[Cha]-NH2)	1.2	3.1			20 ± 11%	% food intake inhibition (male C57BL/6J mice; [6]): 14 ± 7%
CC(C)C[C@H](NC(=O)[C@H](CC(N)=O)NC(=O)[C@H](CC1CCCCC1)NC(=O)[C@H](CC1CCCCC1)NC(=O)[C@H](Cc1cnc[nH]1)NC(=O)[C@H](CCCNC(=N)N)NC(=O)c1ccc(CN)cc1)C(=O)NC(C)(C)C(=O)N[C@H](C(=O)N[C@@H](CCCNC(=N)N)C(=O)N[C@@H](CCC(N)=O)C(=O)N[C@@H](CCCNC(=N)N)C(=O)N[C@@H](CC1CCCCC1)C(N)=O)[C@@H](C)O [Compound 24] (H-[4Amb]RH[Cha][Cha]NL[Aib]TRQR[Cha]-NH2)	0.48	0.65			29 ± 7%	
C[C@@H](O)[C@H](NC(=O)C(C)(C)NC(=O)[C@H](Cc1c[nH]c2ccccc12)NC(=O)[C@H](CC(N)=O)NC(=O)[C@H](CC1CCCCC1)NC(=O)[C@H](CC1CCCCC1)NC(=O)[C@H](Cc1c[nH]cn1)NC(=O)[C@H](CCCNC(=N)N)NC(=O)C1CCCCC1)C(=O)N[C@@H](CCCNC(=N)N)C(=O)N[C@@H](CCC(N)=O)C(=O)N[C@@H](CCCNC(=N)N)C(=O)N[C@@H](CC1CCCCC1)C(N)=O [Compound 27] (Cyclohexanecarbonyl-RH[Cha][Cha]NW[Aib]TRQR[Cha]-NH2)	2.2	8.9			12 ± 8%	
C[C@@H](O)[C@H](NC(=O)C(C)(C)NC(=O)[C@H](Cc1ccc(F)cc1)NC(=O)[C@H](CC(N)=O)NC(=O)[C@H](CC1CCCCC1)NC(=O)[C@H](CC1CCCCC1)NC(=O)[C@H](Cc1c[nH]cn1)NC(=O)[C@H](CCCNC(=N)N)NC(=O)C1CCCCC1)C(=O)N[C@@H](CCCNC(=N)N)C(=O)N[C@@H](CCC(N)=O)C(=O)N[C@@H](CCCNC(=N)N)C(=O)N[C@@H](CC1CCCCC1)C(N)=O [Compound 28] (Cyclohexanecarbonyl-RH[Cha][Cha]N[Phe(4-F)][Aib]TRQR[Cha]-NH2)	7.2	31			21 ± 7%	
CC(C)C[C@H](NC(=O)[C@H](CC(N)=O)NC(=O)[C@H](CC1CCCCC1)NC(=O)[C@H](Cc1ccc2ccccc2c1)NC(=O)[C@H](Cc1c[nH]cn1)NC(=O)[C@H](CCCNC(=N)N)NC(=O)C1CCCCC1)C(=O)NC(C)(C)C(=O)N[C@H](C(=O)N[C@@H](CCCNC(=N)N)C(=O)N[C@@H](CCC(N)=O)C(=O)N[C@@H](CCCNC(=N)N)C(=O)N[C@@H](CC1CCCCC1)C(N)=O)[C@@H](C)O [Compound 29] (Cyclohexanecarbonyl-RH[2Nal][Cha]NL[Aib]TRQR[Cha]-NH2)	14	18			28 ± 8%	
